Experimental data published in patent publication US7135499B2, “Active substance combinations having insecticidal and acaricidal properties” (priority 2002, dated 2006).
“And” between values parts separate entries of the source, which are not always exact repeats. Identical values can stand only once. Like-named read-outs stand apart in the source and are kept apart here.

Columns and labels:
[1] = tested on: cotton aphid (Aphis gossypii); assay: Aphis gossypii test; type: in vivo; settings: after 6 d
[2] = tested on: green peach aphid (Myzus persicea); assay: Myzus test; type: in vivo
[3] = tested on: caterpillars of the diamondback moth (Plutella xylostella, resistant strain); assay: Plutella test, resistant strain; type: in vivo
[4] = tested on: caterpillars of the diamondback moth (Plutella xylostella, sensitive strain); assay: Plutella test, sensitive strain; type: in vivo
[5] = tested on: Heliothis armigera caterpillars; assay: Heliothis armigera test; type: in vivo; settings: for pest or weed control at 0.024 ppm: read-out: Kill rate in % found, 0.024 ppm; for pest or weed control at 0.12 ppm: read-out: Kill rate in % found, 0.12 ppm; for pest or weed control at 3 ppm: read-out: Kill rate in % found, 3 ppm
[6] = tested on: caterpillars of the armyworm (Spodoptera frugiperda); assay: Spodoptera frugiperda test; type: in vivo; settings: for pest or weed control at 0.16 ppm: read-out: Kill rate in % found, 0.16 ppm; for pest or weed control at 0.6 ppm: read-out: Kill rate in % found, 0.6 ppm
[7] = tested on: caterpillars of the armyworm (Spodoptera exigua); assay: Spodoptera exigua test; type: in vivo
[8] = tested on: larvae of the mustard beetle (Phaedon cochleariae); assay: Phaedon larvae test
[9] = Helicoverpa armigera, 72 h, after 3 d
[10] = Helicoverpa armigera, 144 h, after 6 d
[11] = Spodoptera frugiperda, 72 h, after 3 d
[12] = Spodoptera frugiperda, 144 h, after 6 d

Cc1cc(C(F)(C(F)(F)F)C(F)(F)F)ccc1NC(=O)c1cccc(I)c1C(=O)NC(C)(C)CS(C)(=O)=O [(I), N^2-[1,1-dimethyl-2-(methylsulphonyl)ethyl]-3-iodo-N^1-{2-methyl-4-[1,2,2,2-tetrafluoro-1-(trifluoromethyl)ethyl]phenyl}phthalamide]
Kill rate in % found ([1]; 500 ppm): 0% | Kill rate in % found ([2]; 100 ppm, after 1 d): 0% | Kill rate in % found ([2]; 500 ppm, after 6 d): 0% | Kill rate in % found ([3]; 0.0048 ppm, after 6 d): 10% and 0% | Kill rate in % found ([3]; 0.02 ppm, after 6 d): 30% | Kill rate in % found ([3]; 0.024 ppm, after 3 d): 70% | Kill rate in % found ([4]; 0.0048 ppm, after 3 d): 0% | Kill rate in % found ([4]; 0.0048 ppm, after 6 d): 25% | Kill rate in % found ([4]; 0.0064 ppm, after 6 d): 60% | Kill rate in % found ([4]; 0.024 ppm, after 3 d): 55% | Kill rate in % found ([4]; 0.032 ppm, after 3 d): 65% | pest or weed control at 0.024 ppm [5, 9]: 80% | pest or weed control at 0.1 ppm ([5]; Helicoverpa armigera, 72 h, read-out: Kill rate in % found, 0.1 ppm, after 3 d): 80% | pest or weed control at 0.12 ppm [5, 9]: 80% | pest or weed control at 0.032 ppm ([5]; Helicoverpa armigera, 96 h, read-out: Kill rate in % found, 0.032 ppm, after 4 d): 90% | pest or weed control at 0.024 ppm [5, 10]: 70% | pest or weed control at 0.16 ppm [6, 11]: 70% | pest or weed control at 0.16 ppm ([6]; Spodoptera frugiperda, 96 h, after 4 d): 70% | pest or weed control at 0.02 ppm ([6]; Spodoptera frugiperda, 144 h, read-out: Kill rate in % found, 0.02 ppm, after 6 d): 5% | pest or weed control at 0.16 ppm [6, 12]: 95% | Kill rate in % found ([7]; 0.024 ppm, after 6 d): 40% | Kill rate in % found ([7]; 0.032 ppm, after 4 d): 10% | Kill rate in % found ([7]; 0.12 ppm, after 6 d): 85% | Kill rate in % found ([8]; 0.12 ppm, after 3 d): 0% | Kill rate in % found ([8]; 0.12 ppm, after 6 d): 0% | Kill rate in % found ([8]; 0.6 ppm, after 3 d): 0% | Kill rate in % found ([8]; 3 ppm, after 3 d): 60% | Kill rate in % found ([8]; 3 ppm, after 6 d): 70%

CN/C(=N\[N+](=O)[O-])NCc1cnc(Cl)s1 [clothianidin]
Kill rate in % found ([2]; 0.6 ppm, after 6 d): 60% | pest or weed control at 3 ppm [5, 9]: 10%

CC1(C)[C@H](C(=O)O[C@H](C#N)c2cccc(Oc3ccccc3)c2)[C@@H]1C=C(Br)Br [deltamethrin]
Kill rate in % found ([4]; 0.00128 ppm, after 6 d): 40% | pest or weed control at 0.0064 ppm ([5]; Helicoverpa armigera, 96 h, read-out: Kill rate in % found, 0.0064 ppm, after 4 d): 10% | pest or weed control at 0.0064 ppm ([6]; Spodoptera frugiperda, 96 h, read-out: Kill rate in % found, 0.0064 ppm, after 4 d): 0% | Kill rate in % found ([7]; 0.00128 ppm, after 4 d): 0%

CN/C(=N\[N+](=O)[O-])NCC1CCOC1 (centres unmarked) [dinotefuran]
Kill rate in % found ([2]; 3 ppm, after 1 d): 15% | pest or weed control at 3 ppm ([6]; Spodoptera frugiperda, 72 h, read-out: Kill rate in % found, 3 ppm, after 3 d): 40%

CC[S+]([O-])c1c(C#N)nn(-c2c(Cl)cc(C(F)(F)F)cc2Cl)c1N (centres unmarked) [ethiprole]
pest or weed control at 20 ppm ([6]; Spodoptera frugiperda, 144 h, read-out: Kill rate in % found, 20 ppm, after 6 d): 10%

N#Cc1nn(-c2c(Cl)cc(C(F)(F)F)cc2Cl)c(N)c1[S+]([O-])C(F)(F)F (centres unmarked) [fipronil]
Kill rate in % found ([4]; 0.12 ppm, after 3 d): 65% | pest or weed control at 0.12 ppm [5, 10]: 10% | pest or weed control at 0.6 ppm [6, 11]: 20%

O=C(NC(=O)c1c(F)cccc1F)Nc1ccc(Oc2ccc(C(F)(F)F)cc2Cl)cc1F [flufenoxuron]
Kill rate in % found ([3]; 0.12 ppm, after 6 d): 40% | Kill rate in % found ([4]; 0.12 ppm, after 3 d): 0% | pest or weed control at 0.12 ppm [5, 10]: 15% | Kill rate in % found ([7]; 0.6 ppm, after 3 d): 0% | Kill rate in % found ([8]; 3 ppm, after 3 d): 0%

COC(=O)N(C(=O)N1COC2(C(=O)OC)Cc3cc(Cl)ccc3C2=N1)c1ccc(OC(F)(F)F)cc1 (centres unmarked) [indoxacarb]
Kill rate in % found ([3]; 0.12 ppm, after 6 d): 50% | Kill rate in % found ([4]; 0.024 ppm, after 3 d): 0% | pest or weed control at 0.024 ppm [5, 10]: 0% | pest or weed control at 0.6 ppm [6, 11]: 60% | Kill rate in % found ([7]; 0.6 ppm, after 3 d): 20% | Kill rate in % found ([8]; 0.6 ppm, after 3 d): 35%

COc1cccc(C(=O)NN(C(=O)c2cc(C)cc(C)c2)C(C)(C)C)c1C [methoxyfenozide]
Kill rate in % found ([3]; 0.6 ppm, after 6 d): 0% | pest or weed control at 3 ppm [5, 9]: 50% | pest or weed control at 0.6 ppm [6, 12]: 5%

N#C/N=C1\SCCN1Cc1ccc(Cl)nc1 [thiacloprid]
Kill rate in % found ([1]; 3 ppm): 50% | Kill rate in % found ([2]; 3 ppm, after 6 d): 60% | Kill rate in % found ([3]; 3 ppm, after 3 d): 5% | Kill rate in % found ([8]; 15 ppm, after 6 d): 85%

CN1COCN(Cc2cnc(Cl)s2)/C1=N/[N+](=O)[O-] [thiamethoxam]
Kill rate in % found ([2]; 0.6 ppm, after 1 d): 85% | Kill rate in % found ([3]; 3 ppm, after 6 d): 0% | Kill rate in % found ([8]; 15 ppm, after 3 d): 85%

O=C(NC(=O)c1ccccc1Cl)Nc1ccc(OC(F)(F)F)cc1 [triflumuron]
Kill rate in % found ([3]; 3 ppm, after 6 d): 0% | Kill rate in % found ([4]; 0.6 ppm, after 3 d): 0% | pest or weed control at 15 ppm ([5]; Helicoverpa armigera, 72 h, read-out: Kill rate in % found, 15 ppm, after 3 d): 0% | pest or weed control at 0.12 ppm ([6]; Spodoptera frugiperda, 72 h, read-out: Kill rate in % found, 0.12 ppm, after 3 d): 5% | Kill rate in % found ([7]; 15 ppm, after 3 d): 15% | Kill rate in % found ([8]; 0.6 ppm, after 6 d): 0%

abamectin
Kill rate in % found ([4]; 0.00096 ppm, after 3 d): 35% | Kill rate in % found ([5]; 0.0048 ppm, after 6 d): 30% | Kill rate in % found ([6]; 3 ppm, after 3 d): 25% | Kill rate in % found ([7]; 3 ppm, after 6 d): 70% | Kill rate in % found ([8]; 0.12 ppm, after 3 d): 25%

emamectin-benzoate
Kill rate in % found ([3]; 0.00024 ppm, after 6 d): 15% | Kill rate in % found ([4]; 0.00024 ppm, after 6 d): 10% | Kill rate in % found ([5]; 0.00024 ppm, after 6 d): 0% | Kill rate in % found ([6]; 0.006 ppm, after 3 d): 70% | Kill rate in % found ([7]; 0.0012 ppm, after 6 d): 20% | Kill rate in % found ([8]; 0.006 ppm, after 6 d): 10%

spinosad
Kill rate in % found ([4]; 0.0064 ppm, after 3 d): 5% | Kill rate in % found ([6]; 0.032 ppm, after 3 d): 35%
